Measured values: ChEMBL document CHEMBL5131452, “Cell-based screening of extracts of natural sources to search for inhibitors of the ubiquitin-proteasome system and identification of proteasome inhibitors from the fungus Remotididymella sp” (Bioorg Med Chem Lett, 2022)
Activity calls are given as the source filed them. The calls are words filed in the database; no cut-off is given here.

Tests used:
[1] = target: T1, Proteasome Macropain subunit MB1 (Homo sapiens, UniProt P28074); assay: Inhibition of human constitutive proteasome subunit beta type-5 in human erythrocytes using fluorogenic substrate by UV-spectrometry; format: cell-based, Erythrocyte
T1 sequence (P28074 whole entry): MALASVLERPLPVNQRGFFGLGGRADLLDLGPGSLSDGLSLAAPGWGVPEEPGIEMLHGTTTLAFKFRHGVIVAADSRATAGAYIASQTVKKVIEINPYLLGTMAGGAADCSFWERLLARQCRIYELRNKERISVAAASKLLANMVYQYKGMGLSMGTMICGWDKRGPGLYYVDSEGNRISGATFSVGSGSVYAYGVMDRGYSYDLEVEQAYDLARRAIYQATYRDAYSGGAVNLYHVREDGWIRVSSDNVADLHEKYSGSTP

[2] = system: HeLa; assay: Inhibition of UPS-mediated proteolysis in human HeLa cells expressing ODD-luciferase assessed as increase in luminescence at 2 to 16 uM using D-luciferin as substrate incubated for 4 hrs by luciferase reporter gene assay; format: cell-based; conditions: dose 2-16 µM
[3] = target: T2, Proteasome subunit beta type-8 (Homo sapiens, UniProt P28062); assay: Inhibition of human proteasome subunit beta type-5i using fluorogenic substrate by UV-spectrometry
T2 sequence (P28062 whole entry): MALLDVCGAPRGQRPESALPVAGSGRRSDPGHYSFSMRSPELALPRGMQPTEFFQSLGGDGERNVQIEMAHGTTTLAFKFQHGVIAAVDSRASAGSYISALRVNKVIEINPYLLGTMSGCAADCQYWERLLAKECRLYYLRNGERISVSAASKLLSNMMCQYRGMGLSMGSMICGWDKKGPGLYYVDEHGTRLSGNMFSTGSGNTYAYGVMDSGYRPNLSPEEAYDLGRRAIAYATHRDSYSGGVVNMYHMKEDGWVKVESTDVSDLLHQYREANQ

[4] = target: T3, Proteasome subunit beta type-10 (Homo sapiens, UniProt P40306); assay: Inhibition of human proteasome subunit beta type-2i using fluorogenic substrate by UV-spectrometry
T3 sequence (P40306 whole entry): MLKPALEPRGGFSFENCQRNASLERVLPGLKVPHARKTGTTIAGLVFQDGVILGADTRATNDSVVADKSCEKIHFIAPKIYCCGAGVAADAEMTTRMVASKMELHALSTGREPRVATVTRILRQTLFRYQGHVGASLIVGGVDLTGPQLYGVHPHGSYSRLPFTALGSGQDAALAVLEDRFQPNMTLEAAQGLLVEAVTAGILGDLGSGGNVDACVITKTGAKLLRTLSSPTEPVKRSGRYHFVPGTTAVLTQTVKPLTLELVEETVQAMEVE

[5] = target: T4, Proteasome subunit beta type-9 (Homo sapiens, UniProt P28065); assay: Inhibition of human proteasome subunit beta type-1i in using fluorogenic substrate by UV-spectrometry
T4 sequence (P28065 whole entry): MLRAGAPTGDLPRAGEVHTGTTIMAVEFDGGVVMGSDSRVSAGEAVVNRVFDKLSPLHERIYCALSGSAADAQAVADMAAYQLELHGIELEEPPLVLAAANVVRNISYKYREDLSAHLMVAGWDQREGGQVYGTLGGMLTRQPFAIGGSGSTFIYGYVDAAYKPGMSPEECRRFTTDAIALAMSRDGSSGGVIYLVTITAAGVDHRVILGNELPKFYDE

[6] = system: HeLa; assay: Inhibition of UPS-mediated proteolysis in human HeLa cells expressing ODD-luciferase assessed as fold change in increase in luminescence at 2 uM using D-luciferin as substrate incubated for 4 hrs by luciferase reporter gene assay; format: cell-based
[7] = system: HeLa; assay: Cytotoxicity against human HeLa cells expressing ODD-luciferase at 16 uM by MTT assay; format: toxicity, cell-based
[8] = system: HeLa; assay: Inhibition of UPS-mediated proteolysis in human HeLa cells assessed as increase in ubiquitinated proteins at 2 to 24 uM incubated for 24 hrs by western blot analysis; format: cell-based; conditions: dose 2-24 µM

For `CCC(C)/C=C(\C)C1=Cc2cc3c(c(O)c2CO1)C(=O)C(O)(CC(C)=O)C(OC)=C3` (centres undefined), the IC50 [1] was 46 µM, the inhibition [2] was “Active” and the IC50 [3] was 50 µM. It also gave an IC50 [4] of 30 µM and an IC50 [5] greater than 50 µM.
For `CCC(C)/C=C(\C)C1=Cc2cc3c(c(O)c2CO1)C(=O)C(=O)C(OC)=C3` (centres undefined), the inhibition [2] was “Active”, the fold change (FC) [6] was 2.5 and the Activity [7] was “Toxic”. For the same molecule, the inhibition [8] was “Active”.
`CCC(C)/C=C(\C)c1cc2c(cn1)C(=O)c1c(cc(OC)c(O)c1O)C2=O` (centres undefined) was tested, and the IC50 [1] was 16 µM, the IC50 [3] was 40 µM and the IC50 [4] was 43 µM. It also gave an IC50 [5] greater than 50 µM.
In the case of `CCC(C)/C=C(\C)c1cc2c(cn1)C(=O)C1=C(N)C(=O)C(OC)=CC1=C2` (centres undefined), the IC50 [1] is reported as 22 µM, the inhibition [2] is reported as “Active” and the Activity [7] is reported as “Toxic”. It also gave an IC50 [3] of 20 µM, an IC50 [4] of 33 µM and an IC50 [5] greater than 50 µM.
